The target of assay [1] is T1, MMP-13 (Homo sapiens, UniProt P45452).
T1 construct: made in house; host or cells: baculovirus / insect cells
Briefly: In vitro MMP inhibition, Ki determination (fluorogenic substrate II). Type of assay: biochemical. The note with it: value not in parenthesis; read-out: MMP-13 Ki. Put shortly:
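Ki determined with human recombinant MMP-13, baculovirus-expressed as proenzyme and activated with APMA. Fluorogenic MCA/Dpa substrate II at 4 μM (at or below Km) with low enzyme in Tris buffer pH 7.5 with CaCl2. Incubation was 1 h at room temperature, with fluorescence read at 330/420 nm.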

Assay [2] has as its target T2, MMP-2 (Homo sapiens, UniProt P08253).
T2 construct: made in house; host or cells: MMP-2-transfected p2AHT2 cells
T2 sequence (P08253 110-660): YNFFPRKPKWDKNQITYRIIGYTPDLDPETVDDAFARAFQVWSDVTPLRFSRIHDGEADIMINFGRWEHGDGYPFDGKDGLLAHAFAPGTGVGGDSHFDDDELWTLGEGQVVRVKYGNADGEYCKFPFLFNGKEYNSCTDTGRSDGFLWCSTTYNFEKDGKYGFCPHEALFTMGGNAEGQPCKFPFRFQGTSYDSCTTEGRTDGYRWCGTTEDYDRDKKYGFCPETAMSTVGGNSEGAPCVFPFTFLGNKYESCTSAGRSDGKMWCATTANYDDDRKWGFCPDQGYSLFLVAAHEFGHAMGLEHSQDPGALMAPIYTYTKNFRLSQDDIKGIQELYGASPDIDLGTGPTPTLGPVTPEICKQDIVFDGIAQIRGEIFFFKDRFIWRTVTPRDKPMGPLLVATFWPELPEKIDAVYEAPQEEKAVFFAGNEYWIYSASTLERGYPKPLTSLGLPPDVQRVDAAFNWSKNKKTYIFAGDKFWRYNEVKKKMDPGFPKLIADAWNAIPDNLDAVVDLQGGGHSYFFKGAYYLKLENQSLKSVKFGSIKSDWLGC
The description is as above. Type of assay: biochemical. The note with it: value not in parenthesis; read-out: MMP-2 Ki.

Broadly, the Ki is the dissociation constant of the complex between target and ligand, obtained from inhibition or displacement. As to `COc1ccc(-c2ccc(N3CCN(S(=O)(=O)C4(C(=O)NO)CCOCC4)CC3)nc2)cc1` [Example 61], the Ki in assay [1] is 0.16 nM; in assay [2], 0.39 nM.

Turning to `O=C(NO)C1(S(=O)(=O)N2CCN(c3ccc(OC(F)(F)C(F)F)cc3)CC2)CCSCC1` [Example 62], the Ki in assay [1] is 0.5 nM; in assay [2], 0.22 nM.

In the case of `CCCCOc1ccc(N2CCN(S(=O)(=O)C3(C(=O)NO)CC3)CC2)cc1` [Example 63], the Ki in assay [1] worked out at 3.16 nM; in assay [2], 6.77 nM.

For the compound `CCCCOc1ccc(N2CCN(S(=O)(=O)C3(C(=O)NO)CCN(c4ccc(OC(F)(F)C(F)F)cc4)CC3)CC2)cc1` [Example 65], the Ki was determined as 32.7 nM in assay [1] and 23.6 nM in assay [2].

As for `O=C(NO)C1(S(=O)(=O)N2CCN(c3ccc4c(c3)OC(F)(F)C(F)(F)O4)CC2)CCOCC1` [Example 67], the figures for the Ki in assay [1] and in assay [2] were 156 nM and 50.5 nM, respectively.

Turning to `O=C(NO)C1(S(=O)(=O)N2CCN(c3ccc(COCC(F)(F)C(F)(F)F)cc3)CC2)CCOCC1` [Example 70], the Ki in assay [1] was 0.61 nM; in assay [2], 2.57 nM.

As to `CCCCOc1ccc(N2CCN(S(=O)(=O)C3(C(=O)NO)CCN(C(=O)c4ccco4)CC3)CC2)cc1` [Example 156], the Ki in assay [1] was 0.31 nM; in assay [2], 0.75 nM.

For `CCCCOc1ccc(N2CCN(S(=O)(=O)C3(C(=O)NO)CCN(c4nccs4)CC3)CC2)cc1` [Example 157], the results for the Ki in assay [1] and in assay [2] were 1.02 nM and 1.47 nM, respectively.

`CCCCOc1ccc(N2CCN(S(=O)(=O)C3(C(=O)NO)CCN(c4ncccn4)CC3)CC2)cc1` [Example 159]: the Ki came to 0.587 nM in assay [1] and 0.702 nM in assay [2].

Consider `CCCCOc1ccc(N2CCN(S(=O)(=O)C3(C(=O)NO)CCN(C(=O)c4cccs4)CC3)CC2)cc1` [Example 160], for which the values for the inhibition constant (Ki) in assay [1] and in assay [2] were 0.417 nM and 0.599 nM, respectively.

For the compound `Cc1ccc(N2CCC(C(=O)NO)(S(=O)(=O)N3CCN(c4ccc(OCCCC(F)(F)F)cc4)CC3)CC2)cc1` [Example 161], the Ki in assay [1] was determined as 2.91 nM; in assay [2] it was 8.26 nM.

Regarding `O=C(NO)C1(S(=O)(=O)N2CCN(c3ccc(OCCN4CCCC4)cc3)CC2)CCOCC1` [Example 162], the Ki was determined as 7.71 nM in assay [1] and 18.4 nM in assay [2].

For the compound `CCCCOc1ccc(N2CCN(S(=O)(=O)C3(C(=O)NO)CCN(CCOC)CC3)CC2)cn1` [Example 164], the Ki in assay [1] was found to be 22 nM; in assay [2], 28.6 nM.

As to `CCCCOc1c(F)cc(N2CCN(S(=O)(=O)C3(C(=O)NO)CCN(CCOC)CC3)CC2)cc1F` [Example 165], the Ki in assay [1] came out at 1.03 nM; in assay [2] it was 0.49 nM.

Consider `COCCN1CCC(C(=O)NO)(S(=O)(=O)N2CCN(c3ccc(OCC(C)C)c(F)c3)CC2)CC1` [Example 166], for which the Ki turned out to be 0.71 nM in assay [1] and 0.72 nM in assay [2].

Take `CCCCCc1ccc(N2CCN(S(=O)(=O)C3(C(=O)NO)CCOCC3)CC2)nc1` [Example 167]: the Ki in assay [1] came to 0.08 nM; in assay [2] it was 0.11 nM.

For `O=C(NO)C1(S(=O)(=O)N2CCN(c3ccccn3)CC2)CCOCC1` [Example 169], the Ki was 1.88 nM in assay [1] and 1.09 nM in assay [2].

With `O=C(NO)C1(S(=O)(=O)N2CCN(c3ccc(SC(F)(F)F)cc3)CC2)CCOCC1` [Example 170], the Ki in assay [1] came out at 0.96 nM; in assay [2] it was 0.24 nM.

With `CCCc1ccc(N2CCN(S(=O)(=O)C3(C(=O)NO)CCN(c4ccc(C)cc4)CC3)CC2)cc1` [Example 171], the results for the Ki in assay [1] and in assay [2] were 21.5 nM and 6.82 nM, respectively.

As to `CCCCc1ccc(N2CCN(S(=O)(=O)C3(C(=O)NO)CCN(CCOC)CC3)CC2)cc1F` [Example 173], the Ki in assay [1] came out at 0.696 nM; in assay [2] it was 0.209 nM.

As for `COCCN1CCC(C(=O)NO)(S(=O)(=O)N2CCN(c3ccc(C(C)=O)cc3)CC2)CC1` [Example 174], the Ki in assay [1] was 3.52 nM; in assay [2], 2.13 nM.

For `CCCNC(=O)c1ccc(N2CCN(S(=O)(=O)C3(C(=O)NO)CCN(CCOC)CC3)CC2)cc1` [Example 175], the Ki stood at 8.25 nM in assay [1] and 46.9 nM in assay [2].

As for `COCCN1CCC(C(=O)NO)(S(=O)(=O)N2CCN(c3ccccn3)CC2)CC1` [Example 176], the Ki in assay [1] came to 1.73 nM; in assay [2], 1.59 nM.

For `CCCCC(=O)c1ccc(N2CCN(S(=O)(=O)C3(C(=O)NO)CCN(CCOC)CC3)CC2)cc1` [Example 177], the Ki is 0.847 nM in assay [1] and 2.33 nM in assay [2].

For `CCCc1cnc(N2CCN(S(=O)(=O)C3(C(=O)NO)CCN(CCOC)CC3)CC2)nc1` [Example 178], the inhibition constant Ki was 5.26 nM in assay [1] and 7.88 nM in assay [2].

For the compound `CCCC(C)Cc1ccc(N2CCN(S(=O)(=O)C3(C(=O)NO)CCN(CCOC)CC3)CC2)cc1` (centres unmarked) [Example 189], the Ki came out at 2.06 nM in assay [1] and 9.78 nM in assay [2].

In the case of `CCC(C)Cc1ccc(N2CCN(S(=O)(=O)C3(C(=O)NO)CCN(CCOC)CC3)CC2)cc1` (centres unmarked) [Example 190], the results for the Ki in assay [1] and in assay [2] were 0.842 nM and 1.49 nM, respectively.

Turning to `COCCN1CCC(C(=O)NO)(S(=O)(=O)N2CCN(c3ccc(CCCCC(C)C)cc3)CC2)CC1` [Example 191], the Ki was 0.578 nM in assay [1] and 0.986 nM in assay [2].

As for `COCCN1CCC(C(=O)NO)(S(=O)(=O)N2CCN(c3ccc(CC(C)C)cc3)CC2)CC1` [Example 192], the Ki in assay [1] is 1.93 nM; in assay [2] it was 1.9 nM.

As to `CCc1ccc(N2CCN(S(=O)(=O)C3(C(=O)NO)CCN(CCOC)CC3)CC2)cc1` [Example 193], the Ki came to 1.77 nM in assay [1] and 1.21 nM in assay [2].

`COCCN1CCC(C(=O)NO)(S(=O)(=O)N2CCN(c3ccc(C)cc3)CC2)CC1` [Example 194]: the figures for the Ki in assay [1] and in assay [2] were 4.06 nM and 1.74 nM, respectively.

With `COCCN1CCC(C(=O)NO)(S(=O)(=O)N2CCN(c3ccccc3)CC2)CC1` [Example 195], the Ki in assay [1] is 8.07 nM; in assay [2] it was 6.17 nM.

Regarding `COCCN1CCC(C(=O)NO)(S(=O)(=O)N2CCN(c3nc4ccccc4o3)CC2)CC1` [Example 196], the figures for the Ki in assay [1] and in assay [2] were 56.1 nM and 25.1 nM, respectively.

Consider `CCCCCc1ccc(N2CCN(S(=O)(=O)C3(C(=O)NO)CCOCC3)CC2)nn1` [Example 197], for which the Ki in assay [1] was 6.05 nM; in assay [2], 5.78 nM.

`O=C(NO)C1(S(=O)(=O)N2CCN(c3ccc(Cl)nn3)CC2)CCOCC1` [Example 198]: the Ki in assay [1] worked out at 59.9 nM; in assay [2], 8.28 nM.

Consider `CCCCCCc1ccc(N2CCN(S(=O)(=O)C3(C(=O)NO)CCN(CCOC)CC3)CC2)cc1` [Example 199], for which the Ki in assay [1] is 0.397 nM; in assay [2], 0.633 nM.

As for `CCCc1ccc(N2CCN(S(=O)(=O)C3(C(=O)NO)CCN(CCOC)CC3)CC2)cc1` [Example 200], the results for the inhibition constant (Ki) in assay [1] and in assay [2] were 1.61 nM and 0.524 nM, respectively.

In the case of `COCCN1CCC(C(=O)NO)(S(=O)(=O)N2CCN(c3ccc(Br)cc3)CC2)CC1` [Example 201], the figures for the Ki in assay [1] and in assay [2] were 1.36 nM and 0.521 nM, respectively.

For the compound `COCCN1CCC(C(=O)NO)(S(=O)(=O)N2CCN(c3ccc(OC(F)(F)F)cc3)CC2)CC1` [Example 202], the Ki in assay [1] was found to be 0.967 nM; in assay [2] it was 0.432 nM.

As for `O=C(NO)C1(S(=O)(=O)N2CCN(c3ccc(OC(F)(F)F)cc3)CC2)CCN(C2CC2)CC1` [Example 203], the figures for the Ki in assay [1] and in assay [2] were 0.35 nM and 0.28 nM, respectively.

Take `CCCCCc1ccc(N2CCN(S(=O)(=O)C3(C(=O)NO)CCN(S(N)(=O)=O)CC3)CC2)cc1` [Example 205]: the inhibitory constant (Ki) in assay [1] is 2.4 nM; in assay [2] it was 2.03 nM.

For the compound `CCCCCc1ccc(N2CCN(S(=O)(=O)C3(C(=O)NO)CCN(C(=O)CC)CC3)CC2)cc1` [Example 206], the Ki in assay [1] stood at 0.41 nM; in assay [2] it was 0.63 nM.

As to `Cc1ccc(-c2ccc(N3CCN(S(=O)(=O)C4(C(=O)NO)CCOCC4)CC3)cc2)cc1` [Example 207], the Ki in assay [1] is 0.94 nM; in assay [2] it was 2.02 nM.

As to `O=C(NO)C1(S(=O)(=O)N2CCN(c3ccc(-c4ccc(F)cc4)cc3)CC2)CCOCC1` [Example 208], the inhibition constant (Ki) was 0.36 nM in assay [1] and 0.24 nM in assay [2].

In the case of `O=C(NO)C1(S(=O)(=O)N2CCN(c3cnc(CCCC(F)(F)F)cn3)CC2)CCOCC1` [Example 209], the inhibition constant Ki is 3.32 nM in assay [1] and 3.79 nM in assay [2].

Take `O=C(NO)C1(S(=O)(=O)N2CCN(c3cnc(CCC(F)(F)C(F)(F)F)cn3)CC2)CCOCC1` [Example 210]: the inhibition constant (Ki) in assay [1] came to 0.69 nM; in assay [2], 1.04 nM.

On to `O=C(NO)C1(S(=O)(=O)N2CCN(c3ccc(OCC(F)(F)C(F)(F)F)cc3)CC2)CCOCC1` [Example 212], for which the Ki was 0.3 nM in assay [1] and 0.54 nM in assay [2].

As to `CC(C)Cc1ccc(N2CCN(S(=O)(=O)C3(C(=O)NO)CCOCC3)CC2)c(F)c1` [Example 213], the inhibition constant (Ki) in assay [1] was 16.1 nM; in assay [2], 12.6 nM.

Consider `CCCCc1nnc(N2CCN(S(=O)(=O)C3(C(=O)NO)CCOCC3)CC2)s1` [Example 214], for which the Ki stood at 482 nM in assay [1] and 102 nM in assay [2].

The values are drawn from patent US20050209278A1, “Piperidinyl- and piperazinyl-sulfonylmethyl hydroxamic acids and their use as protease inhibitors” (priority 2002, published 2005).
